# According to patent US5493027A, “Anticonvulsive agents and uses thereof” (priority 1993, dated 1996):
# “Also recorded” adds a separate entry of the source. Read-outs that look alike come from different tables or passages of the source.
# Columns and labels:
# [1] = target: T1, strychnine-insensitive glycine binding site of the NMDA receptor (Rattus norvegicus, UniProt P35439); experiment: Inhibition of [3H]glycine specific binding (strychnine-insensitive) in rat cerebral cortex membranes; conditions: 10 uM compound
# T1 construct: Membranes were prepared from rat cerebral cortex; from tissue; host or cells: rat cerebral cortex, "buffy coat" membranes
# Method: Binding Studies--Inhibition of [^3 H]glycine specific binding was assayed using [^3 H]glycine (43 Ci/mmol) obtained from DuPont-New England Nuclear. […] Membranes were prepared from rat cerebral cortex and assays were conducted in Na-free 50 mM HEPES (Sigma) at pH 7.4. Membranes were incubated in a final volume of 1 ml with 20 nM [^3 H]glycine and a 10 uM concentration of the test compound. Although experience has shown that [^3 H]glycine binding in this preparation is strychnine insensitive, 10 uM strychnine was added to the assay mixtures to eliminate the possibility that any effects studied could be mediated through a strychnine-sensitive process. Incubation was continued for 20 min at 4° C. Non-specific binding was determined in the presence of 1 mM glycine and subtracted. All conditions were tested in triplicate in 3 different assays. Binding was terminated using a Brandel M-24C cell harvester employing rapid filtration through GF/C glass fiber filters pre-soaked in 1% (V/V) polyethylenimine. Filters were washed twice with 5 ml buffer cooled to 4° C. Radioactivity bound to the filters was determined with a Beckman LS-500OTD liquid scintillation counter.
# [2] = system: seizures induced by electroshock and pentylenetetrazole; experiment: Anticonvulsant testing, overall (MES and Met); format: in vivo, male Carworth Farms number-1 mice; conditions: for anticonvulsant activity (words) / minimal effective dose: mice, intraperitoneal; for minimal effective dose: Mus musculus, ip, read-out: dose level with anticonvulsant activity (test not given); for CLASS: Phase I Identification: mice, i.p., classes not defined in the patent
# Method: (§1) Compounds were screened for anticonvulsant activity in male Carworth Farms number-1 mice. Test solutions of all compounds were prepared in 30% polyethylene glycol 400, and animals were dosed intraperitoneally at either 30 minutes or 4 hours prior to testing. Testing was conducted on four mice at each of three dose levels (30, 100, and 300 mg/kg).
# (§2) Maximal electroshock seizures (MES) were elicited with a 60 cycle alternatiing current of 50-mA intensity (five to seven times that necessary to evoke minimal electroshock threshold seizures). Current was delivered via corneal electrodes for 0.2 s. A drop of 0.9% saline was instilled in the eye prior to application of electrodes. Abolition of the hindlimb tonic extension component of the seizure was defined as protection in the MES test.
# (§3) In the subcutaneous pentylenetetrazole (Metrazol) seizure threshold test(met), 85 mg/kg pentylenetetrazole was administered as a 0.5% solution in the posterior midline. Protection in this test was defined as a failure to observe a single episode of clonic spasms of at least 5 s duration during the 30 minute period following administration of the convulsive agent.
# as §1, with “Biological testing--Compounds” for “Compounds”, “number-one” for “number-1”, “min” for “minutes”, “h” for “hours”
# as §2, with “alternating” for “alternatiing”
# as §3, with “test (Met),” for “test(met),”, “min” for “minute”
# [3] = system: neurological deficit (rotorod); experiment: Rotorod test for neurological deficit (TOX) in mice; format: in vivo, male Carworth Farms number-1 mice
# Method: as §1
# (§4) Animals were also tested for neurological deficit using the rotorod. After treatment, the animal was placed on a 1 inch diameter knurled plastic rod rotating at 6 rpm. Neurologic deficit was defined as the failure of the animal to remain on the rod for 1 minute.
# as §1, with “Biological testing--Compounds” for “Compounds”, “number-one” for “number-1”, “min” for “minutes”, “h” for “hours”
# (§5) Animals were also tested for neurological deficit using the rotorod. After treatment, the animal was placed on a 1 inch diameter knurled plastic rod rotating at 6 rpm. Neurologic deficit was defined as the failure of the animal to remain on the rod for 1 min.
# [4] = system: pentylenetetrazole (Metrazol) induced seizures; experiment: Subcutaneous pentylenetetrazole (Metrazol) seizure threshold test (Met) in mice; format: in vivo, male Carworth Farms number-1 mice; conditions: for (Maximum Ineffective) Intraperitoneal Dose, Met: Table 7, value in parentheses = maximum ineffective dose; for minimal effective dose: Mus musculus, ip; for Sc MET: mice i.p.
# Method: as §1, §3
# as §1, with “Biological testing--Compounds” for “Compounds”, “number-one” for “number-1”, “min” for “minutes”, “h” for “hours”
# as §3, with “test (Met),” for “test(met),”, “min” for “minute”
# [5] = system: maximal electroshock seizures (MES); experiment: animal or person; format: in vivo, male Carworth Farms number-1 mice; conditions: for MES: mice i.p.; for minimal effective dose: Mus musculus, ip
# Method: as §1, §2
# as §1, with “Biological testing--Compounds” for “Compounds”, “number-one” for “number-1”, “min” for “minutes”, “h” for “hours”
# as §2, with “alternating” for “alternatiing”
# [6] = Rotorod test for neurological deficit (TOX) in mice; format: in vivo, male Carworth Farms number-1 mice; conditions: mouse, in vivo, ip
# Method: as §1, §4
# as §1, with “Biological testing--Compounds” for “Compounds”, “number-one” for “number-1”, “min” for “minutes”, “h” for “hours”
# as §5
# [7] = Table 7, value without parentheses = effective dose (neurologic deficit)
# [8] = Table 7, value without parentheses = effective dose, read-out: Effective Intraperitoneal Dose, Met
# [9] = mice, intraperitoneal, read-out: dose active in Met test
# [10] = Table 7, value without parentheses = effective dose, read-out: Effective Intraperitoneal Dose, MES
# [11] = mice, intraperitoneal, read-out: dose active in MES test
Compound,[3H]glycine binding inhibition [1],anticonvulsant activity (words) [2],"minimal effective dose [4, 8] [mg/kg]","minimal effective dose [4, 9] [mg/kg]","MES ([5]; 30 minutes, 30 mg/kg)","MES ([5]; 30 minutes, 100 mg/kg)","MES ([5]; 30 minutes, 300 mg/kg)","MES ([5]; 4 hours, 30 mg/kg)","MES ([5]; 4 hours, 100 mg/kg)","MES ([5]; 4 hours, 300 mg/kg)",CLASS [2],"Sc MET ([4]; 30 minutes, 30 mg/kg)","Sc MET ([4]; 30 minutes, 100 mg/kg)","Sc MET ([4]; 30 minutes, 300 mg/kg)","Sc MET ([4]; 4 hours, 30 mg/kg)","Sc MET ([4]; 4 hours, 100 mg/kg)","Sc MET ([4]; 4 hours, 300 mg/kg)",other results
"O=C(O)c1cccc(C(=O)O)n1 [2,6-pyridine dicarboxylic acid, pyridine-2,6-dicarboxylic acid]",no glycine displacement; also recorded: did neither,did neither,–,–,–,–,–,–,–,–,–,–,–,–,–,–,–,"Effective Intraperitoneal Dose, Rotorod [3, 7]: 300 mg/kg; crossing of the blood-brain barrier ([3]; evidenced by the rotorod test): did cross the blood-brain barrier; dose causing neurological deficit on rotorod ([3]; mice, intraperitoneal): 300 mg/kg; (Maximum Ineffective) Intraperitoneal Dose, Met [4]: 300 mg/kg"
"CCOC(=O)c1cccc(C(=O)OCC)n1 [2,6-pyridine-di-(ethyl carboxylate), 2,6-pyridine-di(ethyl carboxylate)]",potent [^3 H]glycine displacement,had anticonvulsant activity,100,100,–,–,–,–,–,–,–,–,–,–,–,–,–,"[3H]glycine binding inhibition ([1]; listed as diethyl ester of pyridine-2,6-dicarboxylic acid): inhibited glycine binding; minimal effective dose [2]: 100 mg/kg; Effective Intraperitoneal Dose, Rotorod ([3]; mouse, in vivo, ip): 300 mg/kg; dose causing neurological deficit on rotorod ([3]; mouse, in vivo, ip): 300 mg/kg"
"Nc1cc(C(=O)O)nc2cc(Cl)cc(Cl)c12 [4-amino-5,7-dichloro-2-quinoline carboxylate acid]",–,lack of anticonvulsive activity,–,–,0/1,0/3,0/1,0/1,0/3,0/1,3,0/1,0/1,0/1,0/1,0/1,0/1,–
"COC(=O)c1cc(N)c2c(Cl)cc(Cl)cc2n1 [4-amino-5,7-dichloro-2-quinoline carboxylate methyl ester]",–,–,–,–,0/1,0/3,0/1,0/1,1/3,1/1,1,0/1,1/1,0/1,0/1,0/1,0/1,–
"CNc1cc(C(=O)OC)nc2cc(Cl)cc(Cl)c12 [4-methylamino-5,7-dichloro quinoline 2-carboxylate methyl ester]",–,inactive,–,–,0/1,0/3,0/1,0/1,0/3,0/1,3,0/1,0/1,0/1,0/1,0/1,0/1,"anticonvulsant activity (words) ([2]; listed as 4-methylamino-5,7-dichloro quinoline 2-carboxylate methyl ester): lack of anticonvulsant activity; anticonvulsant activity (words) ([2]; listed as 5,7-di-Cl-4-methylamino-2-methyl ester): inactive in anticonvulsant testing"
"CCOC(=O)c1cc(O)c2c(Cl)cc(Cl)cc2n1 [5,7 0-di-Cl-2-ethyl ester, 5,7-dichloro-kynurenate ethyl ester]",–,inactive,–,–,–,–,–,–,–,–,–,–,–,–,–,–,–,–
"CNc1cc(C(=O)O)nc2cc(Cl)cc(Cl)c12 [5,7-di-Cl-4-methylamino-kyn-2-COOH, 4-methylamino-5,7-dichloro-2-quinoline carboxylic acid]",best inhibitor of [^3 H]glycine binding,–,300,–,0/1,0/3,1/1,0/1,0/3,0/1,2,0/2,0/1,1/1,0/1,0/1,0/1,"minimal effective dose [5, 10]: 100 mg/kg; minimal effective dose [5, 11]: 100 mg/kg; minimal effective dose [2]: ≤ 100 mg/kg; Effective Intraperitoneal Dose, Rotorod ([3]; mouse, in vivo, ip): 100 mg/kg; dose causing neurological deficit on rotorod ([3]; mouse, in vivo, ip): 300 mg/kg; TOX comment ([3]; mouse, in vivo, ip, 300 mg/kg): Unable to hold onto rotorod"
CCOC(=O)c1cc2cc(Cl)ccc2[nH]1 [5-Cl-2-ethyl ester],inactive,inactive; also recorded: abolished activity,–,–,–,–,–,–,–,–,–,–,–,–,–,–,–,–
"O=C(O)c1cc2cc(Cl)ccc2[nH]1 [5-Cl-indole-2-COOH, 5-chloro-indole-2-carboxylic acid]",binding competition similar to that seen with the 5-fluoro derivative,–,100,100,–,–,–,–,–,–,–,–,–,–,–,–,–,"Effective Intraperitoneal Dose, Rotorod ([3]; mouse, in vivo, ip): 300 mg/kg; dose causing neurological deficit on rotorod ([3]; mouse, in vivo, ip): 300 mg/kg; Met activity ([4]; mice, intraperitoneal): Met protection"
CCOC(=O)c1cc2cc(O)ccc2[nH]1 [5-hydroxyl-2-ethyl ester],binding activity,no CNS effects,–,–,–,–,–,–,–,–,–,–,–,–,–,–,–,–
COc1ccc2[nH]c(C(=O)O)cc2c1 [5-methoxy-indole-2-COOH],–,no anticonvulsant activity,–,–,–,–,–,–,–,–,–,–,–,–,–,–,–,"Effective Intraperitoneal Dose, Rotorod ([3]; mouse, in vivo, ip): 300 mg/kg; (Maximum Ineffective) Intraperitoneal Dose, Met [4]: 300 mg/kg"
"CCOC(=O)c1cc2cc(OC)ccc2[nH]1 [5-methoxy-indole-2-ethyl ester, 5-methoxy-indole-2-ethyl carboxylate]",did not compete for [^3 H]glycine binding; also recorded: did not inhibit [^3 H]glycine binding,–,100,100,–,–,–,–,–,–,–,–,–,–,–,–,–,"minimal effective dose [5, 10]: 300 mg/kg; minimal effective dose [5, 11]: 300 mg/kg; Effective Intraperitoneal Dose, Rotorod [3, 7]: 300 mg/kg; dose causing neurological deficit on rotorod ([3]; mice, intraperitoneal): 300 mg/kg"
Cc1cc2c(O)cc(C(=O)O)nc2cc1Cl [6-CH3-7-Cl-2-COOH],glycine-binding inhibition,no anticonvulsant activity,–,–,–,–,–,–,–,–,–,–,–,–,–,–,–,–
Cc1c(Cl)ccc2c(O)cc(C(=O)O)nc12 [7-Cl-8-methyl-kyn-2-COOH],–,–,300,300,–,–,–,–,–,–,–,–,–,–,–,–,–,NOAEL [6]: 300 mg/kg
CCOC(=O)c1cc(O)c2ccc(Cl)cc2n1 [7-Cl-kyn-2-ethyl ester],–,–,300,300,–,–,–,–,–,–,–,–,–,–,–,–,–,NOAEL [6]: 300 mg/kg
"CCCCOC(=O)c1cc(NC)c2c(Cl)cc(Cl)cc2n1 [Butyl 4-Methylamino-5,7-dichloro-2-quinoline Carboxylate]",–,inactive,–,–,0/1,0/3,0/1,0/1,0/3,0/1,31,0/1,0/1,0/1,0/1,0/1,0/1,"anticonvulsant activity (words) ([2]; listed as 5,7-di-Cl-4-methylamino-2-butyl ester): inactive in anticonvulsant testing; anticonvulsant activity (words) ([2]; listed as ester-4-methylamino-5,7-dichloro quinoline-2-carboxylate n-butyryl): lack of anticonvulsant activity"
